Molecules are shown by their SMILES. Some results are limits rather than exact numbers.

Data set [1] is described as follows: in vitro. As to conditions: human. Here is the method:
Cytotoxicity of the compounds was evaluated over human monocytes (U-937 ATCC CRL-1593.2) in exponential growing phase and, adjusted at 1 × 10^5 cells/mL in RPMI-1640 enriched with 10% fetal bovine serum (FBS). One hundred microliters of cell suspension were dispensed in each well of a 96-wells microplate and then, 100 μL of each compound or standard drug (amphotericin B) at four serial dilution concentrations (200, 50, 12.5 and 3.125 μg/mL) were added dissolved in pbs with 0.5% DMSO. Cell exposed to compounds or standard drugs were incubated 72 h at 37 °C and 5% of CO2. Cytotoxic activity of each compound was determined according to the effect on the cell viability by the MTT microenzymatic method in which 3-(4,5-dimethylthiazol-2-yl)- 2,5-diphenyltetrazolium bromide is reduced to a purple product named formazan by mitochondrial enzyme succinate dehydrogenase. Thus, 10 μL/well of MTT solution (5 mg/mL) were added to each well of exposed and unexposed cells, and plates were incubated at 37 °C, 5% CO2 during 3 h. The reaction was stopped by adding 100 μL/well of isopropanol with 50% and 10% of SDS (sodium dodecyl sulfate). The concentration of formazan was determined spectrophotometrically at 570 nm (Varioskan Flash Multimode Reader, Thermo Scientific, Waltham, MA, USA) and intensity of color (absorbance) was registered as O.D. Cells exposed to control drug (amphotericin B) were used as control for toxicity (positive control) while cell incubated in absence of any compound or drug were used as control for viability (negative control). Non-specific absorbance was corrected by subtracting absorbance (O.D) of the blank. Determinations were done by triplicate in at least two independent experiments.
Cytotoxicity was determined according to viability and mortality percentages obtained for each experimental condition (synthetized compounds, amphotericin B and culture medium). Results were expressed as the mean lethal concentrations (LC50), concentration necessary to kill 50% of cells, calculated by the parametric method of linear regression that permits doses-response analysis (Probit analysis).
Initially, viability percentages were calculated by Equation (1), where the O.D of control well, corresponds to 100% of viability. % viability = (O.D exposed cells/O.D unexposed cells) × 100(1)
Then, the percentage of cell growth inhibition was calculated using Equation (2):% inhibition = 100 − (% Viability)(2)
The toxicity was defined according to LC50 values, using the follow scale: Toxic; LC50 < 100 μM; moderately toxic; LC50 > 100 μM and <200 μM and potentially nontoxic; LC50 > 200 μM.

The subject of data set [2] is intracellular amastigotes of Leishmania panamensis (MHOM/CO/87/UA140-EGFP strain). The experiment in a line: In vitro antileishmanial activity on intracellular amastigotes (GFP, flow cytometry). Format: cell-based. The note with it: for SI (index of selectivity, IS = LC50/EC50): LC50 U-937 / EC50 L. panamensis amastigotes; for EC50: intracellular amastigotes of L. panamensis in U-937 cells, 72 h, mean ± SD. The protocol: Antileishmanial activity of compounds was determined according to the ability of the compound to reduce the infection by L. panamensis parasites. For this, the antileishmanial activity was tested on intracellular amastigotes of L. panamensis transfected with the green fluorescent protein gene (MHOM/CO/87/UA140-EGFP strain). Briefly, U-937 human cells at a density of 3 × 10^5 cells/mL in RPMI 1640 and 0.1 μg/mL of PMA (phorbol-12-myristate-13-acetate) were dispensed on 24-wells microplate and then infected with stationary phase growing L. panamensis promastigotes in 15:1 parasites per cell ratio. Plates were incubated at 34 °C and 5% CO2 for 3 h and then cells were washed twice with phosphate buffer solution (PBS) to eliminate not internalized parasites. Fresh RPMI-1640 was added into each well (1 mL) and plates were incubated again. After 24 h of infection, the RPMI-1640 medium was replaced by fresh culture medium containing each compound at four serial dilutions (50, 12.5, 3.125 and 0.78 μg/mL) and plates were then incubated at 37 °C and 5% CO2 during 72 h, then, cells were removed from the bottom plate with 100 μL of EDTA/Trypsin (250 mg) solution. The cells were centrifuged at 1100 rpm during 10 min at 4 °C, the supernatant was discarded and cells were washed with 1 mL of cold PBS and centrifuged at 1100 rpm for 10 min at 4 °C. Cells were washed two times employing PBS, as previously, and after the last wash, the supernatant was discarded and cells were suspended in 500 μL of PBS.
Cells were analyzed by flow cytometry employing a flow cytometer (cytomics FC 500MPL, Beckman Coulter. Pasadena, CA, USA) reading at 488 nm (exciting) and 525 nm (emitting) over an argon laser and counting 10,000 events. Infected cells were determined according the events for green fluorescence (parasites). All determinations for each compound and standard drug were carried out by triplicate, in two experiments. Infected cells exposed to control drug (amphotericin B) were used as control for antileishmanial activity (positive control) while infected cells incubated in absence of any compound or drug were used as control for infection (negative control). Nonspecific fluorescence was corrected by subtracting fluorescence of unstained cells. Determinations were done by triplicate in at least two independent experiments.
Antileishmanial activity was determined according reduction of percentage of fluorescent parasites determined according to the median fluorescence intensity (MFI), obtained for each experimental condition by cytometry. The parasite values for each concentration of compound were calculated by Equation (3), where the % of parasites in the control well, corresponds to 100% of parasites. % parasites = (MFI exposed parasites/MFI unexposed parasites) × 100(3)
Then, inhibition percentage was calculated with Equation (4):% inhibition of parasites = 100 − (% parasites)(4)
Results of antileishmanial activities were expressed as the median effective concentrations (EC50) measured by Probit method.
(In general: In flow cytometry, cells or beads pass a laser one at a time.)

The mark [3] stands for this setting: Leishmania panamensis, U-937, 72 h.

Turning to `O=C1CC(c2ccc(C(F)(F)F)cc2)S(=O)(=O)c2ccc(F)cc21` (centres unmarked) [Compound 3j, 6-Fluoro-2-(4-(trifluoromethyl)-phenyl)-thiochroman-4-one 1,1-dioxide], the CC50 at 72 h in data set [1] is > 558 µM. Also, in data set [2], the “SI (index of selectivity, IS = LC50/EC50)” value is reported as >7.06. It took 79.1 ± 8.98 µM to reach a half-maximal effect in data set [2] (setting [3]) (EC50).
As for `O=C1CC(c2ccc(Cl)cc2)S(=O)(=O)c2ccccc21` (centres unmarked) [Compound 3k, 2-(4-Chlorophenyl)-thiochroman-4-one 1,1-dioxide], in data set [1], the CC50 at 72 h was > 652 µM. The “SI (index of selectivity, IS = LC50/EC50)” value in data set [2] is listed as >4.76. For the same compound, in data set [2] (setting [3]), the EC50 (usually the concentration giving half of the maximal effect) came to 137.1 ± 1.29 µM.
In data set [1], `O=C1CC(c2ccc(F)cc2)S(=O)(=O)c2ccccc21` (centres unmarked) [Compound 3l, 2-(4-Fluorophenyl)thiochroman-4-one 1,1-dioxide] returned a CC50 at 72 h of 689 µM. In addition, in data set [2] (setting [3]), the EC50 was > 68.9 µM.
`O=C1CC(c2ccc([N+](=O)[O-])cc2)S(=O)(=O)c2ccccc21` (centres unmarked) [Compound 3m, 2-(4-Nitrophenyl)-thiochroman-4-one 1,1-dioxide]: in data set [1], the CC50 at 72 h is > 630 µM. In addition, in data set [2] (setting [3]), the concentration giving a half-maximal response (EC50) is > 63 µM.
Turning to `O=C1C=C(c2ccccc2)S(=O)(=O)c2ccccc21` [Compound 4h, 2-Phenyl-4H-thiochromen-4-one 1,1-dioxide], the CC50 at 72 h in data set [1] was > 740 µM. Besides, in data set [2], the “SI (index of selectivity, IS = LC50/EC50)” value is >97.94 and the EC50 came to 7.56 ± 0.33 µM. For the same compound, the concentration giving a half-maximal response (EC50) in data set [2] (setting [3]) was < 10 µM.
Turning to `O=C1C=C(c2ccc(C(F)(F)F)cc2)S(=O)(=O)c2ccccc21` [Compound 4i, 2-(4-(Trifluoromethyl)-phenyl)-4H-thiochromen-4-one 1,1-dioxide], the CC50 at 72 h in data set [1] is > 591 µM. In data set [2], the “SI (index of selectivity, IS = LC50/EC50)” value is recorded as >80.97. The EC50 in data set [2] (setting [3]) was < 10 µM; in data set [2], 7.3 ± 1.6 µM.
Take `O=C1C=C(c2ccc(Cl)cc2)S(=O)(=O)c2ccccc21` [Compound 4k, 2-(4-Chlorophenyl)-4H-thiochromen-4-one 1,1-dioxide]: in data set [1], the CC50 at 72 h is > 656 µM. In data set [2], the “SI (index of selectivity, IS = LC50/EC50)” value is listed as >87.70 and the EC50 was determined as 7.47 ± 0.75 µM. In addition, in data set [2] (setting [3]), the EC50 is < 10 µM.
As to `O=C1C=C(c2ccc(F)cc2)S(=O)(=O)c2ccccc21` [Compound 4l, 2-(4-Fluorophenyl)-4H-thiochromen-4-one 1,1-dioxide], in data set [1], the CC50 at 72 h was > 694 µM. Also, the figures for the EC50 in data set [2] (setting [3]) and in data set [2] were < 10 µM and 6.72 ± 0.16 µM, respectively.
As for `O=C1C=C(c2ccc([N+](=O)[O-])cc2)S(=O)(=O)c2ccccc21` [Compound 4m, 2-(4-Nitrophenyl)-4H-thiochromen-4-one 1,1-dioxide], the CC50 at 72 h in data set [1] is > 634 µM. Further, in data set [2], the “SI (index of selectivity, IS = LC50/EC50)” value was >87.70 and the EC50 is 7.23 ± 0.44 µM. For the same compound, the EC50 in data set [2] (setting [3]) was < 10 µM.

The values above are taken from article PMC6149949, “Synthesis and Evaluation of Thiochroman-4-One Derivatives as Potential Leishmanicidal Agents” (Molecules : A Journal of Synthetic Chemistry and Natural …, 2017).
